We go through two sequences from PMC3836994, “Killer Bee Molecules: Antimicrobial Peptides as Effector Molecules to Target Sporogonic Stages of Plasmodium” (PLoS Pathogens, 2013).

For series [1], the system named is An. gambiae (Mali strain). The series is described as follows: Mosquito longevity after blood feeds containing AMP. The conditions noted are these: for Significance of effect on longevity over 10 days: 50 µM AMP, Kaplan-Meier, Wilcoxon, peptide vs control; for Percent alive, peptide: over 10 days, 50 µM AMP in human blood, feeds on days 0 and 7, 3 or 4 replicates. The class given is in vivo, Anopheles gambiae. The protocol:
(§1) Female An. gambiae (Mali strain, 3–5 days old) were used to establish the effects of AMPs on mosquito longevity and fecundity in the absence of confounding factors introduced with parasite infection. Two hundred 3–6 day old females were fed on human O+ whole blood supplemented with 50 µM AMP (or water control, 1 ml total volume) via feeding chambers of a Hemotek membrane feeding system. Fully engorged mosquitoes were randomly moved into four separate cages, each containing 25 mosquitoes, to facilitate monitoring. Mortality rates were recorded daily for a 10-day period, and oviposition sites were provided on the second and third night post-feeding. A second blood feed containing the same AMP was administered 7 days later to mimic the likelihood that mosquitoes would feed at least twice in the field during the development of sporogonic stages of the malaria parasite. Oviposition sites were again provided to assess fecundity through the number of eggs laid as an average per surviving mosquito. Assays for each AMP were repeated in triplicate on separate generations of mosquitoes. Due to egg retention under experimental conditions, egg production is best measured by dissecting mosquitoes that have not been provided with an oviposition site. However, this is not a feasible method of determining fecundity when longevity is also being measured.

Series [2] has as its system An. gambiae (Mali strain). The series can be described thus: Mosquito oviposition after blood feed containing AMP. The class given is in vivo, Anopheles gambiae. The conditions noted are these: for Significance of effect on oviposition: 50 µM AMP, one-way ANOVA, peptide vs control; for Mean no. of eggs laid per mosquito, peptide: after first feed with 50 µM AMP, eggs laid over two nights, averaged per surviving mosquito, 3 or 4 replicates. As for the experimental part:
as §1

Series [3] concerns Anopheles gambiae Sua 4.0 cells. The series is described as follows: Sua 4.0 mosquito cell viability (erythrosin B exclusion). The class given is cell-based. More on the design: dose or concentration left out as unconfirmed. The conditions noted are these: after 48 h culture; for Average viability of cells (3 replicates), peptide: erythrosin B exclusion, 100 cells in triplicate wells; for Reduction in cell viability: versus control.

The next series concerns P. berghei ookinetes. The series can be described thus: P. berghei ookinete viability in vitro (erythrosin B). The class given is cell-based, Plasmodium berghei. The conditions noted are these: 30 min; for Reduction in ookinete viability: versus control.
A further series has as its system P. berghei. The series can be described thus: P. berghei infections in Anopheles stephensi (oocyst prevalence and intensity). The class given is in vivo, Plasmodium berghei. The conditions noted are these: for Prevalence (proportion of infected mosquitoes), peptide: 50 µM peptide in gametocytaemic mouse blood fed to An. stephensi; for Intensity (mean number of oocysts, range in parentheses), peptide: 50 µM peptide, An. stephensi. The protocol: To assess the effects of AMPs on parasites in vivo, mouse blood containing P. berghei gametocytes was obtained by cardiac puncture and 475 µl was rapidly mixed with 25 µl (50 µM final concentration) of AMP. This mixture was fed to 100 nulliparous 3–5 day old female An. stephensi. A further 475 µl of blood from the same infection was mixed with 25 µl of distilled water to act as a control. Mosquitoes were maintained at 19°C for optimum parasite development. Between 30 and 50 mosquitoes were dissected after 10 days. Mosquito wing length, numbers of retained eggs and oocysts were recorded in triplicate experiments carried out on different mosquito cohorts.

Series [4] concerns An. gambiae (Mali strain). The series can be described thus: Mosquito longevity after blood feeds containing AMP. The class given is in vivo, Anopheles gambiae. The conditions noted are these: 50 µM AMP in blood on days 0 and 7; extended to 30 days.
In series [5] the test system is Anopheles gambiae Sua 4.0 cells. The series can be described thus: Sua 4.0 mosquito cell growth (cell counts). The class given is cell-based. The conditions noted are these: 25 µM AMP; for Average number of cells over 3 replicates, peptide: seeded 30×10^4/ml, mean of 3 experiments.
[6] abbreviates: 50 µM of single peptide, n = 150 ookinetes per treatment per replicate.
Setting [7] is: 3 hrs in culture, haemocytometer count of duplicate wells.

No end group written: not given here.

Regarding “KFPKFRRGIPFLFVGPSGKFPKFRRGIPFLFV [Vida 3 dimer]”, in series [1], the “Significance of effect on longevity over 10 days” value is given as “N/S”. In series [1], the “Percent alive, peptide” value was 68%. For the same sequence, the “Significance of effect on oviposition” value in series [2] was “N/S”. In addition, in series [2], the “Mean no. of eggs laid per mosquito, peptide” value was determined as 43. For the same sequence, the “Average viability of cells (3 replicates), peptide” value in series [3] was 58%; in series [3] (listed as Vida3 dimer) it was “above 50%”. For the same sequence, in series [3], the “Reduction in cell viability” value worked out at 38%. Also, the entries for the “Average ookinete viability (3 reps), peptide” value with P. berghei ookinetes (setting [6]) and in the series with P. berghei ookinetes (100 µM of single peptide) were 4% and 0%, respectively. Further, the “Reduction in ookinete viability” value is on record as 96% in the series on P. berghei ookinetes (50 µM of single peptide); 100% with P. berghei ookinetes (100 µM of single peptide); 100% in the series on P. berghei ookinetes (100 µM of single peptide, listed as Vida3 dimer). Further, the “Prevalence (proportion of infected mosquitoes), peptide” value (“Prevalence” below) in the series on P. berghei (Replicate 1) is 33% (40); in the series with P. berghei (Replicate 2) it was 80% (50); in the series with P. berghei (Replicate 3), 76% (50). Moreover, the entries for the “Intensity (mean number of oocysts, range in parentheses), peptide” value (from here on “Intensity”) with P. berghei (Replicate 1), in the series on P. berghei (Replicate 2) and with P. berghei (Replicate 3) were 1 (0–6), 37 (0–271) and 4 (0–67), respectively. Further, the “Effect on longevity over 30 days (in words)” value in series [4] is “no significant long-term effects on longevity”. Further, the “Reduction in cell number (compared to control)” value (“Reduction in cell number” for short) in series [5] (3 hrs in culture) is on record as 7%; in series [5] (24 hrs in culture), 62%; in series [5] (24 hrs in culture, listed as Vida3 dimer) it was 62%; in series [5] (48 hrs in culture), 72%. Besides, the “Average number of cells over 3 replicates, peptide” value in series [5] (setting [7]) worked out at 280000 mL⁻¹; in series [5] (24 hrs in culture), 170000 mL⁻¹; in series [5] (48 hrs in culture), 190000 mL⁻¹.
For “AGYLLGKINLKALAALAKKILGGAGYLLGKINLKALAALAKKIL [TP10 dimer, TP10 (dimer)]”, in series [1], the “Significance of effect on longevity over 10 days” value is given as “N/S” and the “Percent alive, peptide” value turned out to be 76%. Further, in series [2], the “Significance of effect on oviposition” value is reported as “N/S” and the “Mean no. of eggs laid per mosquito, peptide” value is given as 25. Besides, in series [3], the “Average viability of cells (3 replicates), peptide” value is 1% and the “Reduction in cell viability” value came to 99%. Besides, the “Average ookinete viability (3 reps), peptide” value in the series on P. berghei ookinetes (setting [6]) amounted to 0%. Further, the “Reduction in ookinete viability” value in the series with P. berghei ookinetes (50 µM of single peptide) is recorded as 100%. Also, in the series with P. berghei (Replicate 1), the “Prevalence” value is given as 56% (50) and the “Intensity” value is 2 (0–84). Besides, in the series with P. berghei (Replicate 2), the “Prevalence” value was 66% (50) and the “Intensity” value was 4 (0–67). For the same sequence, in the series with P. berghei (Replicate 3), the “Prevalence” value is recorded as 56% (50) and the “Intensity” value is given as 2 (0–13). Further, the “Effect on longevity over 30 days (in words)” value in series [4] is recorded as “significant reduction in survivorship”. For the same sequence, the “Reduction in cell number” value in series [5] (3 hrs in culture) came to 20%. Moreover, in series [5] (setting [7]), the “Average number of cells over 3 replicates, peptide” value stood at 240000 mL⁻¹. Further, in series [5] (24 hrs in culture), the “Reduction in cell number” value came out at 42% and the “Average number of cells over 3 replicates, peptide” value was 250000 mL⁻¹. Besides, in series [5] (48 hrs in culture), the “Reduction in cell number” value is 58% and the “Average number of cells over 3 replicates, peptide” value is 260000 mL⁻¹.
